According to patent publication US12037324B2, “Biarylmethyl heterocycles” (Université de Montréal, priority 2016, dated 2024):
pEC50: −log10 of the molar value.

Legend:
[1] = target: T1, AGTR1 (Homo sapiens, UniProt P30556); test: DiscoveRx β-arrestin2 recruitment assay (enzyme complementation, Pathunter CHO-K1 AGTR1 β-arrestin cell line); format: cell-based; details: DiscoveRx β-arrestin2 recruitment; for DiscoveRx β-arrestin2 Ymax (%): maximal response
T1 construct: host or cells: Pathunter CHO-K1 AGTR1 β-arrestin cell line (CHO-K1)
T1 sequence (P30556 1-359): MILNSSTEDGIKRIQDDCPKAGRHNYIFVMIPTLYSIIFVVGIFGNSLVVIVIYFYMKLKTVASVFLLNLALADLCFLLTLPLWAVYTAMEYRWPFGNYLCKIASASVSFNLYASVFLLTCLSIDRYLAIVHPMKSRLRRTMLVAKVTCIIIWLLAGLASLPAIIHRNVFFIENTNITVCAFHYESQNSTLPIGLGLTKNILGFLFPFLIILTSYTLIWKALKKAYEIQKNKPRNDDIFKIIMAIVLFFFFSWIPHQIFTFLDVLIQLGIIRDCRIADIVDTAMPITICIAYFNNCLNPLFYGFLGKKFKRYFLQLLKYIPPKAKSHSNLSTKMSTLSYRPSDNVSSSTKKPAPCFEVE
How it was run: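 Chemiluminescent enzyme-complementation read-out of β-arrestin2 recruitment to AGTR1 in engineered CHO-K1 cells after 90 min compound exposure at 37° C. Values are 4-parameter logistic EC50s in agonist mode, IC50s in antagonist mode, with efficacy relative to the maximal All response.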

[2] = target: T1, AGTR1; test: DiscoveRx IP1 accumulation assay (HTRF), agonist mode, Pathunter CHO-K1 AGTR1 β-arrestin cell line; format: cell-based; details: for pEC50: read-out: IP-1 EC50
How it was run: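 Agonist mode in CHO-K1 AGTR1 β-arrestin cells plated 14-16 h before; compounds at varying concentrations for 90 min at 37° C, IP1 accumulation read by HTRF (D2-conjugate and anti-IP1 cryptate, 20 min room temperature). EC50 from 4-parameter logistic fit; activity given as percentage of maximal AII effect.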

[3] = target: T2, hAT1R (Homo sapiens, UniProt P30556); test: BRET β-arrestin2 biosensor assay, higher receptor expression (hAT1R 5 ng/well), HEK293 cells; format: cell-based; details: for pEC50: High AT1R Expression
T2 sequence (P30556 1-359): T1 sequence (P30556 1-359)

[4] = target: T2, hAT1R; test: cell-based
[5] = target: T2, hAT1R; test: cell-based; details: agonist mode; for pEC50: read-out: BRET P63 EC50
[6] = Low AT1R Expression, read-out: BRET β-Arrestin2 Low AT1R Expression EC50
[7] = section of the 42nd table ending at r951, example numbering restarts after the DiscoveRx section, read-out: β-arrestin2 EC50

Compound | pEC50 [1] | DiscoveRx β-arrestin2 Ymax (%) [1] [%] | IP-1 Ymax (%) [2] [%] | pEC50 [2] | BRET β-Arrestin2 High AT1R Expression Ymax (%) [3] [%] | pEC50 [3] | pEC50 [4, 6] | pEC50 [5] | BRET β-Arrestin2 Low AT1R Expression Ymax (%) ([4]; Low AT1R Expression) | BRET P63 Ymax [5] [%] | pEC50 [4, 7]
CCc1nc2c(C)cc(C)nc2n1Cc1ccc(-c2cc(-c3cccc(C)n3)ccc2-c2nn[nH]n2)cc1 [Example 59] | 7.90 | 29.5 | 10.4 | 7.66 | 52.1 | 7.85 | < 5.00 | < 5.00 |  |  | 
CCc1nc2c(C)cc(C)nc2n1Cc1ccc(-c2cc(-c3cncc(C)c3)ccc2-c2nn[nH]n2)cc1 [Example 60] | 7.27 | 33.5 | 5.3 | 7.08 | 85.8 | 7.71 | 7.03 | < 5.00 | 39.4 |  | 
CCc1nc2c(C)cc(C)nc2n1Cc1ccc(-c2cc(-c3cccc(C(F)(F)F)n3)ccc2-c2nn[nH]n2)cc1 [Example 61] | 7.50 | 43.7 | 9.8 | 6.82 | 81.4 | 7.79 | 6.97 | 7.65 | 38.2 | 6.4 | 
CCc1nc2c(C)cc(C)nc2n1Cc1ccc(-c2cc(-c3ccc(CO)cc3)ccc2-c2nn[nH]n2)cc1 [Example 63] | 7.99 | 26.1 | 21.4 | 7.29 | 76.6 | 8.12 | 7.58 | 7.63 | 59.3 | 12.4 | 
CCc1nc2c(C)cc(C)nc2n1Cc1ccc(-c2cc(-c3cc(C)ccn3)ccc2-c2nn[nH]n2)cc1 [Example 64] | 8.16 | 67.8 | 30.8 | 7.63 | 92.5 | 8.72 | 8.51 | 8.59 | 98.7 | 41.3 | 
CCc1nc2c(C)cc(C)nc2n1Cc1ccc(-c2cc(-c3ccccc3)ccc2-c2noc(=S)[nH]2)cc1 [Example 72, 3-(4″-((2-ethyl-5,7-dimethyl-3H-imidazo[4,5-b]pyridin-3-yl)methyl)-[1,1′:3′,1″-terphenyl]-4′-yl)-1,2,4-oxadiazole-5(4H)-thione] | 7.65 | 63.6 | 8.5 | 7.04 | 85.8 | 7.48 | 7.24 | 7.37 | 44.4 | 11.8 | 
CCc1nc2c(C)cc(C)nc2n1Cc1ccc(-c2cc(N3CCCC(F)(F)C3)ccc2-c2nn[nH]n2)cc1 [Example 83] | 7.62 | 40.5 | 9.0 | 7.57 | 87.3 | 7.28 | 6.82 | 7.26 | 43.1 | 8.2 | 
CCC1=NC2(CCCC2)C(=O)N1Cc1ccc(-c2cc(-c3ccccc3)ccc2-c2nn[nH]n2)cc1 [Example 112, 3-((6′-(2H-tetrazol-5-yl)-[1,1′:3′,1″-terphenyl]-4-yl)methyl)-2-ethyl-1,3-diazaspiro[4.4]non-1-en-4-one] | 6.91 | 33.4 | 7.7 | 6.55 | 78.5 | 7.51 | 6.76 | 7.33 | 39.3 | 8.2 | 
CCCC1=NC2(CCCC2)C(=O)N1Cc1ccc(-c2cc(-c3ccccc3)ccc2-c2nn[nH]n2)cc1 [Example 114, 3-((6′-(2H-tetrazol-5-yl)-[1,1′:3′,1″-terphenyl]-4-yl)methyl)-2-propyl-1,3-diazaspiro[4.4]non-1-en-4-one] | 7.30 | 46.5 | 8.3 | 6.91 | 89.2 | 7.92 | 7.44 | 7.18 | 57.2 | 11.8 | 
CCCC1=NC2(CCCC2)C(=O)N1Cc1ccc(-c2cc(N3CCC[C@@H](C)C3)ccc2-c2nn[nH]n2)cc1 [Example 117] | 7.13 | 30.6 |  | < 4.00 | 35.0 | 7.03 | < 4.00 | < 4.00 |  |  | 
CCCCC1=NC2(CCCC2)C(=O)N1Cc1ccc(-c2cc(-c3ccc(C)cc3)ccc2-c2nn[nH]n2)cc1 [Example 122, 2-butyl-3-((4″-methyl-6′-(2H-tetrazol-5-yl)-[1,1′:3′,1″-terphenyl]-4-yl)methyl)-1,3-diazaspiro[4.4]non-1-en-4-one] | 7.79 | 33.8 | 5.5 | 7.45 | 94.3 | 7.76 | 7.51 | < 5.00 | 31.6 |  | 
CCCCC1=NC2(CCCC2)C(=O)N1Cc1ccc(-c2cc(-c3ccc(C(=O)N(C)C)cc3)ccc2-c2nn[nH]n2)cc1 [Example 133] | 8.24 | 18.0 |  | < 4.00 | 69.0 | 7.42 | < 5.00 | < 5.00 |  |  | 
CCCCC1=NC2(CCCC2)C(=O)N1Cc1ccc(-c2cc(-c3cc(C)ccn3)ccc2-c2nn[nH]n2)cc1 [Example 139] | 7.98 | 50.1 | 16.8 | 7.72 | 95.0 | 7.95 | 7.38 | 7.46 | 83.5 | 20.6 | 
CCCCC1=NC2(CCCC2)C(=O)N1Cc1ccc(-c2cc(-c3cc(OC)ccn3)ccc2-c2nn[nH]n2)cc1 [Example 141] | 7.87 | 31.5 |  | < 4.00 | 88.6 | 8.00 | 7.39 | 7.88 | 58.9 | 14.9 | 
CCc1nc2c(C)cc(C)nc2n1Cc1ccc(-c2cc(-c3cccc(C)c3)ccc2-c2nnn[nH]2)nc1 [Example 175, 2-ethyl-5,7-dimethyl-3-((6-(3′-methyl-4-(1H-tetrazol-5-yl)biphenyl-3-yl)pyridin-3-yl)methyl)-3H-imidazo[4,5-b]pyridine] | 8.22 | 37.0 | 24.1 | 7.89 | 93.0 | 8.28 |  | 7.68 |  | 12.4 | 7.97
CCc1nc2c(C)cc(C)nc2n1Cc1ccc(-c2cc(-c3ccccc3)ccc2-c2nnn[nH]2)nc1 [Example 176, 3-((6-(4-(1H-tetrazol-5-yl)-[1,1′-biphenyl]-3-yl)pyridin-3-yl)methyl)-2-ethyl-5,7-dimethyl-3H-imidazo[4,5-b]pyridine] | 7.50 | 32.0 | 9.8 | 7.31 | 79.1 | 7.59 |  | < 4.00 |  |  | 7.51
CCc1nc2c(C)cc(C)nc2n1Cc1ccc(-c2cc(-c3cccc(C)c3)ccc2-c2nnn[nH]2)cn1 [Example 177, 2-ethyl-5,7-dimethyl-3-((5-(3′-methyl-4-(1H-tetrazol-5-yl)biphenyl-3-yl)pyridin-2-yl)methyl)-3H-imidazo[4,5-b]pyridine] | 7.93 | 52.2 | 22.9 | 6.95 | 91.8 | 8.40 |  | 7.44 |  | 23.8 | 7.94
CCc1nc2c(C)cc(C)nc2n1Cc1ccc(-c2cc(-c3ccccc3O)ccc2-c2nnn[nH]2)cn1 [Example 178] | 8.15 | 75.6 | 20.8 | 7.67 | 89.3 | 8.32 |  | 7.59 |  | 19.6 | 7.71
